pIC50: −log10 of the molar value.
Tests used:
[1] = system: 83NS (GSC cell line derived from a GBM patient) orthotopic glioblastoma model; test: In vivo orthotopic glioblastoma xenograft model, survival; details: mice, oral daily 50 mg/kg for 4 weeks, 83NS orthotopic model
Experimental: An in vivo experiment was carried out using a xenograft model. Specifically, 83NS (GSC cell line derived from a GBM patient) was used to construct an orthotopic glioblastoma model in such a way that 1×10^4 cells were injected into the brain of each of mice (n=16) at a volume of 3 μl. Thereafter, a vehicle was administered to mice (n=8), and AST-DT-218 was orally administered daily to the remaining mice (n=8) at a concentration of 50 mg/kg for 4 weeks, […]. On the other hand, the drug to be administered was changed to AST-DT-135, and the same experiment was carried out.

U87 cells [2] = test: Western blotting of gamma-H2AX and cleaved PARP; assay type: cell-based
Experimental: The following experiments were carried out to check whether AST-DT-218 induces DNA fragmentation and apoptosis. First, U87 cells were cultured, the cells were separated using Trypsin-EDTA when the cells grew sufficiently, the cells were plated and distributed uniformly on a 12-well plate, and the cells were treated with AST-DT-218 after being attached. Subsequently, the cells were washed with PBS, proteins were extracted using a cell lysis buffer, and the cell extract was centrifugated to collect the supernatant. Then, protein samples having the same concentration were loaded onto an SDS-PAGE gel and subjected to electrophoresis, and the proteins were transferred to a PVDF membrane. After blocking the membrane with 5% skim milk (or BSA), each of the antibodies against γ-H2AX (DNA damage marker), cleaved PARP (apoptosis marker), and beta-actin was treated at 4° C. for 16 hours. The Western blotting results were analyzed to evaluate the expression levels of gamma-H2AX and cleaved PARP. Beta-actin was used as a loading control to check the consistency of the protein loading.

[3] = system: U87 glioblastoma-derived brain cancer cell line; test: Dose response curve (DRC), cell survival, U87; assay type: cell-based
Experimental: (§1) The DRC was created in order to check whether AST-DT-218 is effective in the cell death in the brain cancer. First, glioblastoma-derived brain cancer cell lines (U87 and U373) were cultured in the respective flasks to prepare cells that had reached the logarithmic growth stage. Then, the cells were washed with PBS, harvested with trypsin, centrifuged to adjust the cell density, and then resuspended in a suitable culture medium, and the cells were dispensed into a 96-well plate. Cells were cultured until they were attached to the plate and stabilized, AST-DT-218 and a control group (lenalidomide, pomalidomide) were prepared and diluted to a variety of concentrations (½ dilution from the highest concentration of 10 μM, 10-point). The cells in the well of the plate were treated for 48 hours with each compound at individual concentrations, and the cells were cultured to react with the compound. After the culture was completed, the number of cells was measured through the nuclear staining of the cells to evaluate the cell survival rate. The cell survival rate at each concentration was measured to collect data. Then, the DRC was created (FIG. 6 and FIG. 7), and IC50 was calculated (Table 3).

U87 cells [4] = test: Colony-formation assay; assay type: cell-based; details: cultured about two weeks, crystal violet
Experimental: U87 cells, which are a brain cancer cell line, were cultured, the cells were separated using Trypsin-EDTA when the cells grew sufficiently, the cells were distributed uniformly on a 12-well plate, and the cells were treated with AST-DT-218 in each well after being attached. Then, the cells were cultured for about two weeks in an environment of 37° C. and about 5% CO2. When the cultivation was completed, the cells were fixed. Then, the colonies were stained with a crystal violet solution, and after the staining, the colonies were washed with PBS to remove background staining. A microscope was used to observe the colonies, and the number and size of the colonies were measured and quantified (FIG. 2).

[5] = system: U87 brain cancer cell line; test: In vitro cell survival assay (nuclear staining), U87; assay type: cell-based; details: for pIC50: U87, 48 hours treatment, cell number by nuclear staining
Experimental: (§2) An in vitro experiment was carried out to check whether the compound (AST-DT-218) prepared in Example 2 was effective in the cell death in the brain cancer. First, brain cancer cell lines (U87, U373, and SK-N-SH) were cultured in the respective flasks to prepare cells that had reached the logarithmic growth stage. Then, the cells were washed with PBS, harvested with trypsin, centrifuged to adjust the cell density, and then resuspended in a suitable culture medium, and the cells were dispensed into a 96-well plate. The culture was carried out until the cells were attached to the plate and stabilized. AST-DT-218 and temozolomide, a conventional therapeutic agent for glioblastoma, were prepared and diluted at various concentrations (½ dilution from the highest concentration of 50 μM, 10-point). The cells in the well of the plate were treated for 48 hours with each compound at individual concentrations, and the cells were cultured to react with the compound. After the culture was completed, the number of cells was measured through the nuclear staining of the cells to evaluate the cell survival rate (FIG. 1), and IC50 was calculated (Table 2).

[6] = system: U373 brain cancer cell line; test: In vitro cell survival assay (nuclear staining), U373; assay type: cell-based; details: Homo sapiens, U373 MG; U373, 48 hours treatment, cell number by nuclear staining
Experimental: as §2

[7] = system: SK-N-SH brain cancer cell line; test: In vitro cell survival assay (nuclear staining), SK-N-SH; assay type: cell-based; details: Homo sapiens, 48 hours treatment, cell number by nuclear staining
Experimental: as §2

U87 cells [8] = test: Propidium iodide (PI) apoptosis assay; assay type: cell-based; details: flow cytometry
Experimental: A PI apoptosis assay was carried out to check whether AST-DT-218 induces DNA fragmentation and apoptosis as in Experimental Example 3-1. A PI detection kit was prepared, propidium iodide (PI) was added to the U87 cells that had been treated with AST-DT-218, and a reaction was allowed to proceed at room temperature in a dark room for 10 minutes. Then, PI fluorescence was measured using a flow cytometry apparatus (FIG. 4).

U87 cells [9] = test: Measurement of sub G1 population (flow cytometry); assay type: cell-based; details: 48 hours, 0.5 μM and 1 μM
Experimental: The sub G1 population was measured to check whether AST-DT-218 induces DNA fragmentation and apoptosis as in Experimental Example 3-1. […] The value of the sub G1 population of cells was measured using a flow cytometry apparatus (FIG. 5).

[10] = system: U373 glioblastoma-derived brain cancer cell line; test: Dose response curve (DRC), cell survival, U373; assay type: cell-based; details: Homo sapiens, U373 MG; Glioblastoma U373, 48 hours, highest concentration 10 μM; read-out: IC50 of AST-DT-218, U373
Experimental: as §1

| Compound | survival rate (Kaplan-Meier analysis) versus vehicle [1] | DNA fragmentation and apoptosis (expression of gamma-H2AX and cleaved PARP) (U87 cells [2]) | pIC50 ([3]; Glioblastoma U87, 48 hours, highest concentration 10 μM, read-out: IC50 of AST-DT-218, U87) | cell death of brain cancer cells compared with lenalidomide and pomalidomide ([3]; U87 and U373, DRC) | formation of colonies (U87 cells [4]) | pIC50 [5] | cell death efficacy compared with temozolomide ([5]; brain cancer cell lines U87, U373, SK-N-SH, summary of Table 2) | pIC50 [6] | pIC50 [7] | DNA fragmentation and apoptosis (PI fluorescence) (U87 cells [8]) | value of the sub G1 population (U87 cells [9]) | pIC50 [10] |
| --- | --- | --- | --- | --- | --- | --- | --- | --- | --- | --- | --- | --- |
| CCC[C@H](C)Nc1cccc2c1C(=O)N(C1CCC(=O)NC1=O)C2=O (stereo partly drawn) [AST-DT-135, 2-(2,6-dioxopiperidin-3-yl)-4-(((S)-pentan-2-yl)amino)isoindoline-1,3-dione] | significantly increased survival rate |  |  |  |  |  |  |  |  |  |  |  |
| COc1ccc([C@@H](C)Nc2cccc3c2C(=O)N(C2CCC(=O)NC2=O)C3=O)cc1 (stereo partly drawn) [AST-DT-218, 2-(2,6-dioxopiperidin-3-yl)-4-(((R)-1-(4-methoxyphenyl)ethyl)amino)isoindoline-1,3-dione] | significantly increased survival rate | induced DNA fragmentation and apoptosis | 5.47 | effective in the cell death of the brain cancer cells | significantly reduced the formation of colonies | 5.47 | efficacy superior to temozolomide | 6.15 | 6.62 | induced DNA fragmentation and apoptosis | increased | 5.91 |
| Cn1nnc2c(C(N)=O)ncn2c1=O [Temozolomide, temozolomide, reference compound] |  |  |  |  |  | 3.54 |  |  | 4.61 |  |  |  |
